Laboratory results taken from patent publication US10299475B2, “Pesticide” (ISHIHARA SANGYO KAISHA, LTD., priority 2013, dated 2019).

What follows are compounds tested on Haemaphysalis longicornis (larvae) (assay: Test for examining effect on Haemaphysalis longicornis (larvae), coated vial contact test). Conditions: 100 ppm solution coated on plastic vial, 20 larvae, 24 hours after contact, 25° C., constant dark, relative humidity 80-100%.
Assay type: in vivo
Text: Test for Examining Effect on Haemaphysalis longicornis (larvae)

| Structure (SMILES) | mortality at 100 ppm |
| --- | --- |
| CC(C)CNC(=O)c1ccc(CCOc2ccc(F)c(-c3ccccc3)c2)cc1 [4-6, N-isobutyl-4-(2-(4-fluoro-3-phenylphenoxy)ethyl)benzamide] | ≥ 90% |
| CC(C)CNC(=O)c1ccc(CCOc2cccc(OC(F)(F)F)c2)cc1 [1-24, N-isobutyl-4-(2-(3-(trifluoromethoxy)phenoxy)ethyl)benzamide] | ≥ 90% |
| CC(C)CNC(=O)c1ccc(CCOc2cccc(Br)c2)cc1 [1-9, N-isobutyl-4-(2-(3-bromophenoxy)ethyl)benzamide] | ≥ 90% |
| CC(C)CNC(=O)c1ccc(CCOc2ccc(Cl)c(I)c2)cc1 [1-326, N-isobutyl-4-(2-(4-chloro-3-iodophenoxy)ethyl)benzamide] | ≥ 90% |
| CC(C)CNC(=O)c1ccc(CCOc2ccc(Cl)c(-c3ccc(Cl)cc3)c2)cc1 [4-115, N-isobutyl-4-(2-(4-chloro-3-(4-chlorophenyl)phenoxy)ethyl)benzamide] | ≥ 90% |
| CC(C)CNC(=O)c1ccc(CCOc2cccc(-c3ccc(Cl)cc3Cl)c2)cc1 [4-187, N-isobutyl-4-(2-(3-(2,4-dichlorophenyl)phenoxy)ethyl)benzamide] | ≥ 90% |
| CC(C)CNC(=O)c1ccc(CCOc2ccc(OC(F)(F)F)cc2)cc1 [1-25, N-isobutyl-4-(2-(4-(trifluoromethoxy)phenoxy)ethyl)benzamide] | ≥ 90% |
